Test results published in patent US4205163A, “Tylosin derivatives” (Sanraku-Ocean Co., Ltd., priority 1977, dated 1980).
In brackets after ≈: the same amount, converted by molar mass.

What was measured:
Test in all cases: antimicrobial activity, broth dilution method
Format in all cases: cell-based
[1] = test system: Bacillus cereus ATCC 9634; conditions: broth dilution; for MIC: Bacillus cereus, ATCC9634, Bacillus cereus ATCC 9634, read-out: minimum inhibitory concentration (MIC)
Method: (§1) Antimicrobial activity of the new antibiotics according to the present invention was measured on various pathogenic microorganisms by the broth dilution mehtod. Tab. […] The new antibiotics show a similar antimicrobial spectrum to that of tylosin as shown in Tab. 4. All the compounds have an excellent antimicrobial activity mainly on gram-positive bacteria. […] Test microorganisms with an asterisk mark (*) in Tab. 4 are all drug-resistant strains that were clinically isolated. More in detail, Staphylococcus aureus MS-8710 is resistant to tylosin, penicillin, tetracycline, erythromycin and leucomycin. Staphylococcus aureus MS-9931 is resistant to tylosin, penicillin, erythromycin, tetracycline, leucomycin, spiramycin and josamycin. And also Streptococcus piogenes is resistant to tylosin, erythromycin, oleandomycin and leucomycin.

Sarcina lutea ATCC 9341 = conditions: for MIC: Micrococcus luteus, ATCC9341, Sarcina lutea ATCC 9341, read-out: minimum inhibitory concentration (MIC)
Method: as §1

[2] = test system: Staphylococcus aureus FDA-209P; conditions: Staphylococcus aureus FDA-209P, broth dilution; for MIC: Staphylococcus aureus, FDA209P, read-out: minimum inhibitory concentration (MIC)
Method: as §1

[3] = test system: Staphylococcus aureus MS-8710; conditions: for MIC: Staphylococcus aureus, MS8710, Staphylococcus aureus MS-8710, drug-resistant clinical isolate, read-out: minimum inhibitory concentration (MIC)
Method: as §1

[4] = test system: Staphylococcus aureus MS-9931; conditions: Staphylococcus aureus MS-9931, drug-resistant clinical isolate; for MIC: MS9931, read-out: minimum inhibitory concentration (MIC)
Method: as §1

[5] = test system: Staphylococcus aureus MS-9937; conditions: Staphylococcus aureus MS-9937, drug-resistant clinical isolate; for MIC: MS9937, read-out: minimum inhibitory concentration (MIC)
Method: as §1

[6] = test system: Staphylococcus aureus SMITH; conditions: Staphylococcus aureus SMITH, broth dilution; for MIC: Staphylococcus aureus, read-out: minimum inhibitory concentration (MIC)
Method: as §1

[7] = test system: Streptococcus pyogenes MH-771; conditions: for MIC: Streptococcus pyogenes, MH771, Streptococcus pyogenes MH-771, drug-resistant clinical isolate, read-out: minimum inhibitory concentration (MIC)
Method: as §1

MIC [1] [µg/mL]	MIC (Sarcina lutea ATCC 9341) [µg/mL]	MIC [2] [µg/mL]	MIC [3] [µg/mL]	MIC [4] [µg/mL]	MIC [5] [µg/mL]	MIC [6] [µg/mL]	MIC [7] [µg/mL]	SMILES	minimum inhibitory concentration (MIC) ([1]; Bacillus cereus ATCC 9634) [µg/mL]	minimum inhibitory concentration (MIC) (Sarcina lutea ATCC 9341; Sarcina lutea ATCC 9341) [µg/mL]	minimum inhibitory concentration (MIC) [2] [µg/mL]	minimum inhibitory concentration (MIC) ([3]; Staphylococcus aureus MS-8710, drug-resistant clinical isolate) [µg/mL]	minimum inhibitory concentration (MIC) [4] [µg/mL]	minimum inhibitory concentration (MIC) [5] [µg/mL]	minimum inhibitory concentration (MIC) [6] [µg/mL]	minimum inhibitory concentration (MIC) ([7]; Streptococcus pyogenes MH-771, drug-resistant clinical isolate) [µg/mL]
0.39 (≈ 0.361 µM)	0.19 (≈ 0.176 µM)	0.39 (≈ 0.361 µM)	6.25 (≈ 5.79 µM)	6.25 (≈ 5.79 µM)	6.25 (≈ 5.79 µM)	0.39 (≈ 0.361 µM)	3.13 (≈ 2.9 µM)	CCC1OC(=O)CC(O)C(C)C(OC2OC(C)C(OC3CC(C)(O)C(OC(=O)Cc4ccc([N+](=O)[O-])cc4)C(C)O3)C(N(C)C)C2O)C(CC=O)CC(C)C(=O)C=CC(C)=CC1COC1OC(C)C(O)C(OC)C1OC (stereo not shown) [Compound 14, 4"-(4-nitrophenyl)acetyltylosin]								
0.78 (≈ 0.715 µM)	0.19 (≈ 0.174 µM)	0.39 (≈ 0.358 µM)	25 (≈ 22.9 µM)	25 (≈ 22.9 µM)	25 (≈ 22.9 µM)	0.39 (≈ 0.358 µM)	12.5 (≈ 11.5 µM)	CCC1OC(=O)CC(OC(C)=O)C(C)C(OC2OC(C)C(OC3CC(C)(O)C(OC(=O)C(C)c4ccccc4)C(C)O3)C(N(C)C)C2O)C(CC=O)CC(C)C(=O)C=CC(C)=CC1COC1OC(C)C(O)C(OC)C1OC (stereo not drawn) [Compound 15, 3-acetyl-4"-α-phenylpropionyltylosin]								
0.78 (≈ 0.734 µM)	0.19 (≈ 0.179 µM)	0.39 (≈ 0.367 µM)	12.5 (≈ 11.8 µM)	25 (≈ 23.5 µM)	12.5 (≈ 11.8 µM)	0.39 (≈ 0.367 µM)	6.25 (≈ 5.88 µM)	CCC(C(=O)OC1C(C)OC(OC2C(C)OC(OC3C(CC=O)CC(C)C(=O)C=CC(C)=CC(COC4OC(C)C(O)C(OC)C4OC)C(CC)OC(=O)CC(O)C3C)C(O)C2N(C)C)CC1(C)O)c1ccccc1 (stereo not drawn) [Compound 16, 4"-α-phenyl-n-butyryltylosin]								

Second part, the compound before the results:

SMILES	MIC [1] [µg/mL]	MIC (Sarcina lutea ATCC 9341) [µg/mL]	MIC [2] [µg/mL]	MIC [3] [µg/mL]	MIC [4] [µg/mL]	MIC [5] [µg/mL]	MIC [6] [µg/mL]	MIC [7] [µg/mL]	minimum inhibitory concentration (MIC) ([1]; Bacillus cereus ATCC 9634) [µg/mL]	minimum inhibitory concentration (MIC) (Sarcina lutea ATCC 9341; Sarcina lutea ATCC 9341) [µg/mL]	minimum inhibitory concentration (MIC) [2] [µg/mL]	minimum inhibitory concentration (MIC) ([3]; Staphylococcus aureus MS-8710, drug-resistant clinical isolate) [µg/mL]	minimum inhibitory concentration (MIC) [4] [µg/mL]	minimum inhibitory concentration (MIC) [5] [µg/mL]	minimum inhibitory concentration (MIC) [6] [µg/mL]	minimum inhibitory concentration (MIC) ([7]; Streptococcus pyogenes MH-771, drug-resistant clinical isolate) [µg/mL]
CCCC(C)C(=O)OC1C(C)OC(OC2C(C)OC(OC3C(CC=O)CC(C)C(=O)C=CC(C)=CC(COC4OC(C)C(O)C(OC)C4OC)C(CC)OC(=O)CC(O)C3C)C(O)C2N(C)C)CC1(C)O (stereo not drawn) [Compound 12, 4"-α-methyl-n-valeryltylosin]	0.78 (≈ 0.769 µM)	0.39 (≈ 0.385 µM)	1.56 (≈ 1.54 µM)	25 (≈ 24.6 µM)	100 (≈ 98.6 µM)	25 (≈ 24.6 µM)	1.56 (≈ 1.54 µM)	6.25 (≈ 6.16 µM)								
CCC(CC)C(=O)OC1C(C)OC(OC2C(C)OC(OC3C(CC=O)CC(C)C(=O)C=CC(C)=CC(COC4OC(C)C(O)C(OC)C4OC)C(CC)OC(=O)CC(OC(C)=O)C3C)C(O)C2N(C)C)CC1(C)O (stereo not drawn) [Compound 13, 3-acetyl-4"-α-ethyl-n-butyryltylosin]	0.78 (≈ 0.738 µM)	0.19 (≈ 0.18 µM)	0.39 (≈ 0.369 µM)	25 (≈ 23.7 µM)	25 (≈ 23.7 µM)	25 (≈ 23.7 µM)	0.78 (≈ 0.738 µM)	12.5 (≈ 11.8 µM)								
CCC1OC(=O)CC(OC(C)=O)C(C)C(OC2OC(C)C(OC3CC(C)(O)C(OC(=O)C(OC(C)=O)c4ccccc4)C(C)O3)C(N(C)C)C2O)C(CC=O)CC(C)C(=O)C=CC(C)=CC1COC1OC(C)C(O)C(OC)C1OC [Compound 19, 3-acetyl-4"-D-(α-acetoxyphenylacetyl)tylosin]	0.78 (≈ 0.688 µM)	0.78 (≈ 0.688 µM)	1.56 (≈ 1.38 µM)	100 (≈ 88.2 µM)	100 (≈ 88.2 µM)	100 (≈ 88.2 µM)	0.78 (≈ 0.688 µM)	25 (≈ 22 µM)								
CCC1OC(=O)CC(OC(C)=O)C(C)C(OC2OC(C)C(OC3CC(C)(O)C(OC(=O)C(OC(C)=O)c4ccccc4)C(C)O3)C(N(C)C)C2O)C(CC=O)CC(C)C(=O)C=CC(C)=CC1COC1OC(C)C(O)C(OC)C1OC [Compound 20, 3-acetyl-4"-L-(α-acetoxyphenylacetyl)tylosin]									1.56 (≈ 1.38 µM)	0.39 (≈ 0.344 µM)	0.78 (≈ 0.688 µM)	50 (≈ 44.1 µM)	100 (≈ 88.2 µM)	100 (≈ 88.2 µM)	1.56 (≈ 1.38 µM)	12.5 (≈ 11 µM)
CCC1OC(=O)CC(OC(C)=O)C(C)C(OC2OC(C)C(OC3CC(C)(O)C(OC(=O)C(OC(C)=O)c4ccc(OC(C)=O)cc4)C(C)O3)C(N(C)C)C2O)C(CC=O)CC(C)C(=O)C=CC(C)=CC1COC1OC(C)C(O)C(OC)C1OC (stereo not drawn) [Compound 21, 3-acetyl-4"-[α-acetoxy-(4-acetoxyphenyl)acetyl]tylosin]	0.78 (≈ 0.654 µM)	0.39 (≈ 0.327 µM)	0.78 (≈ 0.654 µM)	50 (≈ 41.9 µM)	50 (≈ 41.9 µM)	50 (≈ 41.9 µM)	0.78 (≈ 0.654 µM)	12.5 (≈ 10.5 µM)								
